“And” between values parts separate entries of the source, which are not always exact repeats. Equal values may be shown once. Peptide text beside a SMILES is read from it.
Columns and labels:
[1] = test system: osteo- and mixed osteo- and rheumatoid arthritis; conditions: clinical trial, Edmundson and Manion 1998; cited from earlier work
whole blood viscosity [2] = experiment: Blood viscosity after additional in vitro APM on samples taken post in vivo treatment; assay type: cell-based, human; conditions: 1 or 2 milligrams/milliliter APM added in vitro to 480 minute post-treatment samples
Procedure: (§1) To measure viscosity, 1.01 cc of the test fluid, i.e., either water, saline or blood, was drawn into an RBC pipette using a 50 cc syringe attached via rubber tubing to the top of the RBC pipette. Using a constant pressure of 20 mm by maintaining the pressure with visual feedback and hand pressure, the amount of time it took for the test fluid to drip out of the RBC pipette was measured with a stopwatch. Each measurement was made in triplicate.
Samples with high viscosity readings at 480 minute or 1,440 minute posttreatment, chosen to represent patients with a validated response to APM who were returning to normal, were divided and treated with an additional 0, 1, or 2 milligrams/milliliter APM in vitro, in an effort to measure whether a second inducible sickling response was possible and if a second response to the in vitro APM addition could be observed. The viscosity of each sample at 480 minutes post-treatment was measured.

whole blood viscosity [3] = experiment: Blood viscosity by RBC pipette method before and after blinded oral APM; assay type: in vivo, human; conditions: for Blood viscosity change after treatment: baseline vs 120 minutes post-treatment
Description: Blood samples were obtained from ten patients having homozygous HbSS disease or heterozygous HbSC disease before and after a blinded administration of APM at 1.5 (low dosage), 3 (medium dosage), or 6 (high dosage) milligrams per kilogram body weight. The patients' characteristics are given in the first ten entries in Table II.
Viscosity determinations using the RBC pipette method of Wright and Jenkins (Wright, D. J. and Jenkins, Jr., D. E. 1970. Blood 36:516-522) were made on each blinded whole blood sample before and 120 minutes after blinded administration of APM. Each measurement was made in triplicate. Control viscosity measurements using saline and water for each patient and normal whole blood sample were also made to validate the viscosity measurements.
as §1

sickling RBCs [4] = experiment: Blinded APM dose-response study of patients with sickle cell disorders (sickle cell counts); assay type: in vivo, human; conditions: for Dose-response of antisickling effect: 1.5, 3, 6 mg/kg body weight
Procedure: A blinded study was conducted with 23 patients diagnosed with sickle cell disorders. Blood samples were obtained from the 23 patients having sickle cell disease (homozygous HgBss), sickle cell trait (heterozygous Hgbsc), or homozygous HbS with a β-thalassemia chain (“sbthal”) before and after a blinded administration of APM at 1.5 (low dosage), 3 (medium dosage), or 6 (high dosage) milligrams per kilogram body weight.
Blood was drawn before and 120 minutes after treatment with 0, 1.5, 3, or 6 milligrams APM per kilogram body weight in a blinded fashion from the ten patients into heparin tubes, stored in a refrigerator at approximately 10° C. and routinely tested within 36 hours of collection.
Normal blood devoid of abnormal hemoglobin was used as a control. For each heparinized patient blood sample and the normal blood control, experimental samples were prepared containing 0.25 milliliters of normal saline and 0.25 milliliters of blood. Following the metabisulfite induction as given in Example 1, the number of sickle cells relative to the number of normal cells was obtained at 0, 30, 60, 120, 240, 480, and 1440 minutes post-induction.

sickling RBCs [5] = experiment: Reduction of sickle cells in vivo: metabisulfite sickling test on blood of one patient before and 1 hour after oral APM; parameters: species or system human; conditions: blood 1 hour after
Procedure: During Week 1 of the study, blood samples were taken from the patient before and one hour after an orally administered dose of 60 milligrams APM. During Week 2, blood samples were taken from the patient before and one hour after an orally administered dose of 160 milligrams APM. The blood samples and slides were prepared according to the methods given in Example 1, and cell counts were taken at 0, 30, and 120 minutes post-induction.

RBCs containing HbS = experiment: Metabisulfite sickling test on heparinized patient blood treated with APM in vitro; assay type: cell-based, human; conditions: for Number of Cells Sickled per Hundred Counted: individual patients 1-12, baseline subtracted; for Number of Cells Sickled per Hundred Counted, Avg: average over 0, 30, 120 min per patient 1-12; for Number of Cells Sickled per Hundred Counted, Mean: mean of the twelve patients' averages (control 17.7)
Procedure: Blood was drawn from twelve patients of pediatric age who were being treated by phlebotomy and exchange transfusion for their sickling disorders. Blood samples from each patient were drawn directly into heparin tubes, stored in a refrigerator at approximately 10° C., and routinely tested within 36 hours of collection. Some samples were rechecked or reanalyzed within a week of collection, and the effects on sickle hemoglobin was still present with counted values similar to those obtained within 36 hours.
Normal blood devoid of HbS was used as a control. For each heparinized patient blood sample and the normal blood control, three experimental samples were prepared containing 0.25 milliliters of normal saline and 0.25 milliliters of blood and then treated as follows: (1) one was left untreated; one was treated with 1 milligram APM; and (3) one was treated with 2 milligrams APM. All experimental samples were stored in a refrigerator at approximately 10° C. for one hour prior to testing to allow time for the APM to be absorbed by the RBCs.
Using metabisulfite to reduce HbS to the deoxy form (Daland, G. A. and Castle, W. B. 1948. J Lab Clin Med 33:1082-1088; Nelson, D. A. In Todd-Sanford-Davidsohn Clinical Diagnosis by Laboratory Methods, J. B. Henry, ed. (W. B. Saunders Co., Philadelphia, 1979, vol. 1, p. 1020), a sickling test was run on each experimental sample. The sickling inducing agent was prepared fresh daily as follows: 10 milligrams metabisulfite in 1 milliliter isotonic saline. Multiple test slides were prepared for each experimental sample by adding 3 drops of the metabisulfite inducing agent and 1 drop of the experimental sample onto the surface of a glass slide, placing a coverslip over the sample, and sealing the coverslip with a petroleum jelly bead to prevent oxygen from entering the sample. Photomicrographs were taken with a phase contrast microscope at 400 magnification at 0, 30, and 120 minutes after slide preparation, and the results were obtained from the photomicrographs as the number of sickle cells per 100 cells counted.
To account for natural or non-induced sickling of the experimental samples, a baseline sickling count was obtained for each heparinized patient blood sample and the normal blood control. Slides were prepared by adding 3 drops of saline and 1 drop of the experimental sample onto the surface of a glass slide, placing a coverslip over the sample, and sealing the coverslip with a petroleum jelly bead to prevent oxygen from entering the sample. Photomicrographs were taken with a phase contrast microscope at 400 magnification at 0, 30, and 120 minutes after slide preparation, and the results were obtained from the photomicrographs as the number of sickle cells per 100 cells counted. This number of sickle cells per 100 cells counted was considered the baseline sickling count and was subtracted from the cell counts obtained with the metabisulfite induced samples.
A timeline for APM effect was made by repeating the experiment given above with cell counts obtained at 0, 1, 2, 3, 4, 5, 24, and 27 hours post-metabisulfite induction. The results are presented in FIG. 2 as combined APM timelines for each treatment method. The antisickling effect of APM in vitro lasted for at least 27 hours. During this period, the rate of sickling in the APM treated
The effect of calcium (Ca^2+) on the effectiveness of APM was examined by repeating the experiment above with the addition of EDTA, a Ca^2+chelating agent, to normal blood control and the patient experimental samples prior to testing. FIG. 3 illustrates the comparative heparin versus EDTA treatment of the blood. […] Moreover, the addition of a calcium salt to APM formulations useful for antisickling treatment as well as in vitro applications is desirable.

Passage of APM across the RBC membrane (RBCs containing HbS; in the absence of Ca2+ (EDTA)): does not pass the RBC membrane
SMILES: COC(=O)[C@H](Cc1ccccc1)NC(=O)[C@@H](N)CC(=O)O [APM, N-L-alpha-aspartyl-L-phenylalanine 1-methyl ester] (H-Asp-Phe-OMe)
Pain and inflammation of arthritis [1]: alleviate the pain and inflammation
Viscosity of blood samples compared to the control (whole blood viscosity [2]; HgBss patients): decreased over time
Viscosity of blood samples compared to the control (whole blood viscosity [2]; Hgbsc patients): increase in viscosity
Blood viscosity change after treatment (whole blood viscosity [3]; HgBss patients, 1.5, 3 or 6 mg/kg): blood viscosity decreased
No. of Patients with decreasing viscosity (whole blood viscosity [3]; HgBss, of five patients): 5
Blood viscosity change after treatment (whole blood viscosity [3]; Hgbsc patients): increased viscosity
No. of Patients with increasing viscosity (whole blood viscosity [3]; Hgbsc, of three patients): 3
Blood viscosity change after treatment (whole blood viscosity [3]; sbthal patients): blood viscosity also decreased
No. of Patients with decreasing viscosity (whole blood viscosity [3]; sbthal, of two patients): 2
Dose-response of antisickling effect (sickling RBCs [4]; HgBss and sbthal patients): significant dose-response effect
Dose-response of antisickling effect (sickling RBCs [4]; Hgbsc patients): No dose-response effect
Effect on HbSC blood (sickling RBCs [4]; in vivo or in vitro, sickle cell number and viscosity): not affected
Number of sickling RBCs relative to the control (sickling RBCs [4]; lower dosage 1.5 mg/kg body weight): decrease in the number of sickling RBCs
Time to reduction in number of sickle cells relative to normal cells after administration (sickling RBCs [4]; patients with sickle cell family diseases, effective amount): within one hour
Number of sickling RBCs relative to the control (sickling RBCs [5]; 60 milligrams APM orally, patient with sickle cell anemia): decrease in the number of sickling RBCs
Antisickling effect versus 60 milligram dosage (sickling RBCs [5]; 160 milligrams APM orally, same patient): proportionately larger
Number of Cells Sickled per Hundred Counted (RBCs containing HbS; APM 1 mg in 0.25 ml blood + 0.25 ml saline, 0 min after slide preparation): 1.5 per Hundred Counted (2×) and 1.0 per Hundred Counted and 0.5 per Hundred Counted and 0.0 per Hundred Counted and 2.5 per Hundred Counted (2×) and 2.0 per Hundred Counted (2×) and 9.5 per Hundred Counted (2×) and −1.0 per Hundred Counted
Number of Cells Sickled per Hundred Counted (RBCs containing HbS; APM 1 mg, 30 min after slide preparation): 2.5 per Hundred Counted and 2.0 per Hundred Counted and −1.0 per Hundred Counted and 6.0 per Hundred Counted and 1.5 per Hundred Counted and 3.5 per Hundred Counted (2×) and 3.0 per Hundred Counted and 10.5 per Hundred Counted and 9.0 per Hundred Counted and 4.5 per Hundred Counted and −0.5 per Hundred Counted
Number of Cells Sickled per Hundred Counted (RBCs containing HbS; APM 1 mg, 120 min after slide preparation): 1.5 per Hundred Counted and 3.5 per Hundred Counted (2×) and 1.0 per Hundred Counted and 21.0 per Hundred Counted and 2.5 per Hundred Counted and 3.0 per Hundred Counted and 12.0 per Hundred Counted and 11.0 per Hundred Counted and 4.0 per Hundred Counted and 0.5 per Hundred Counted
Number of Cells Sickled per Hundred Counted, Avg (RBCs containing HbS; APM 1 mg): 1.8 per Hundred Counted and 2.2 per Hundred Counted (2×) and 0.2 per Hundred Counted and 9.0 per Hundred Counted and 2.8 per Hundred Counted (2×) and 10.7 per Hundred Counted and 9.8 per Hundred Counted and 3.2 per Hundred Counted (2×) and −0.3 per Hundred Counted
Number of Cells Sickled per Hundred Counted, Mean (RBCs containing HbS; APM 1 mg): 4.0 per Hundred Counted
Number of Cells Sickled per Hundred Counted (RBCs containing HbS; APM 2 mg in 0.25 ml blood + 0.25 ml saline, 0 min after slide preparation): 0.5 per Hundred Counted (2×) and 0.0 per Hundred Counted (2×) and 2.0 per Hundred Counted (2×) and 2.5 per Hundred Counted and 1.0 per Hundred Counted (2×) and 6.5 per Hundred Counted and 8.5 per Hundred Counted and −5.5 per Hundred Counted
Number of Cells Sickled per Hundred Counted (RBCs containing HbS; APM 2 mg, 30 min after slide preparation): 0.5 per Hundred Counted (2×) and 1.0 per Hundred Counted and −0.5 per Hundred Counted and 6.0 per Hundred Counted and 2.0 per Hundred Counted (3×) and 1.5 per Hundred Counted and 5.0 per Hundred Counted and 8.5 per Hundred Counted and −6.5 per Hundred Counted
Number of Cells Sickled per Hundred Counted (RBCs containing HbS; APM 2 mg, 120 min after slide preparation): −0.5 per Hundred Counted (2×) and 0.5 per Hundred Counted and 19.0 per Hundred Counted and 2.5 per Hundred Counted and 5.0 per Hundred Counted and 2.0 per Hundred Counted (2×) and 9.5 per Hundred Counted and 1.0 per Hundred Counted and −6.5 per Hundred Counted
Number of Cells Sickled per Hundred Counted, Avg (RBCs containing HbS; APM 2 mg): 0.0 per Hundred Counted and 0.5 per Hundred Counted and −0.3 per Hundred Counted and 9.0 per Hundred Counted and 2.3 per Hundred Counted and 1.3 per Hundred Counted and 3.0 per Hundred Counted and 4.5 per Hundred Counted and 8.8 per Hundred Counted and 1.2 per Hundred Counted and 0.8 per Hundred Counted and −6.2 per Hundred Counted
Number of Cells Sickled per Hundred Counted, Mean (RBCs containing HbS; APM 2 mg): 2.1 per Hundred Counted
Antisickling effect of APM with addition of EDTA (RBCs containing HbS; EDTA (Ca2+ chelating agent) added prior to testing): completely eliminated the antisickling effect
Sickle cells after metabisulfite versus controls (RBCs containing HbS; all twelve patients, 1 and 2 mg APM, ANOVA p<0.00004): fewer sickle cells than the controls
Duration of antisickling effect in vitro (RBCs containing HbS; counts at 0-27 hours post-metabisulfite induction): at least 27 hours
Rate of sickling in APM treated cells (RBCs containing HbS; over 27 hours, versus controls): significantly less than that in the controls
